According to patent publication US4537717A:
Values after ≈ are worked out from the molar mass of the structure shown.

Key:
Streptococcus Group 9960 = type: cell-based, Streptococcus pneumoniae; settings: agar dilution; 2, 5, 17, 22 median of three tests; paired values two experiments
[1] = tested on: Micrococcus luteus ATCC 9341; test: agar-plate disc-diffusion test; type: cell-based; settings: suspended in water at 1 mg/ml; 7 mm disc; 24-48 hours at 25-37° C.
[2] = tested on: Streptococcus pyogenes C203; type: cell-based; settings: agar dilution; 2, 5, 17, 22 median of three tests; paired values two experiments
Staphylococcus aureus = test: in vivo activity against experimental bacterial infection (ED50); settings: mice; two doses subcutaneously; dose protecting fifty percent of test animals
toxicity test (LD50) = settings: mouse, in vivo, iv, mice; administered intravenously
[3] = tested on: Bacillus subtilis ATCC 6633; test: agar-plate disc-diffusion test; settings: 7 mm disc, 24-48 hours at 25-37° C.; for Size of Zone of Inhibition (mm) B. subtilis ATCC 6633, grown on minimal nutrient agar: 1 mg/ml; for Size of Zone of Inhibition (mm) Bacillus subtilis ATCC 6633: suspended in water at 1 mg/ml
Experimental: ^a Compounds were suspended in water at a concentration of 1 mg/ml; a
7 mm disc was dipped into the suspension and then placed on the agar
surface; incubation: 24-48 hours at 25-37° C.
^b Grown on minimal nutrient agar

[4] = tested on: Staphylococcus aureus X400; type: cell-based; settings: methicillin-resistant strain; agar dilution; 2, 5, 17, 22 median of three tests; paired values two experiments
[5] = tested on: Staphylococcus aureus X1.1; type: cell-based; settings: agar dilution; 2, 5, 17, 22 median of three tests; paired values two experiments
[6] = tested on: Streptococcus pneumoniae Group D X66; type: cell-based; settings: agar dilution; 2, 5, 17, 22 median of three tests; paired values two experiments
[7] = tested on: Staphylococcus epidermidis EPI2; type: cell-based; settings: agar dilution; 2, 5, 17, 22 median of three tests; paired values two experiments
[8] = tested on: Streptococcus pneumoniae Park I; type: cell-based; settings: agar dilution; 2, 5, 17, 22 median of three tests; paired values two experiments
Streptococcus pyogenes = test: in vivo activity against experimental bacterial infection (ED50); settings: mice, dose protecting fifty percent of test animals; for ED50 Streptococcus pyogenes Oral: two doses orally; for ED50 Streptococcus pyogenes Subcutaneous: two doses subcutaneously
[9] = tested on: Staphylococcus aureus ATCC 6738P; test: agar-plate disc-diffusion test; type: cell-based; settings: suspended in water at 1 mg/ml; 7 mm disc; 24-48 hours at 25-37° C.
[10] = tested on: Staphylococcus aureus V41; type: cell-based; settings: penicillin-resistant strain; agar dilution; 2, 5, 17, 22 median of three tests; paired values two experiments
[11] = tested on: Staphylococcus epidermidis EPI1; type: cell-based; settings: agar dilution; 2, 5, 17, 22 median of three tests; paired values two experiments

Structure (SMILES) | MIC Streptococcus pneumoniae Group 9960 (Streptococcus Group 9960) | Size of Zone of Inhibition (mm) Micrococcus luteus ATCC 9341 [1] | MIC Streptococcus pyogenes C203 [2] | ED50 Staphylococcus aureus Subcutaneous (Staphylococcus aureus) | LD50 (toxicity test (LD50)) | Size of Zone of Inhibition (mm) B. subtilis ATCC 6633, grown on minimal nutrient agar [3] | Size of Zone of Inhibition (mm) Bacillus subtilis ATCC 6633 [3] | MIC Staphylococcus aureus X400 [4] | MIC Staphylococcus aureus X1.1 [5] | MIC Streptococcus pneumoniae Group D X66 [6] | MIC Staphylococcus epidermidis EPI2 [7] | MIC Streptococcus pneumoniae Park I [8] | ED50 Streptococcus pyogenes Oral (Streptococcus pyogenes) | ED50 Streptococcus pyogenes Subcutaneous (Streptococcus pyogenes) | Size of Zone of Inhibition (mm) Staphylococcus aureus ATCC 6738P [9] | MIC Staphylococcus aureus V41 [10] | MIC Staphylococcus epidermidis EPI1 [11]
C=CCCCCCCCCC(=O)N[C@@H](Cc1c[nH]c2ccccc12)C(=O)N[C@@H](CC(N)=O)C(=O)N[C@@H](CC(=O)O)C(=O)N[C@@H]1C(=O)NCC(=O)N[C@@H](CCCN)C(=O)N[C@@H](CC(=O)O)C(=O)N[C@H](C)C(=O)N[C@@H](CC(=O)O)C(=O)NCC(=O)N[C@H](CO)C(=O)N[C@@H]([C@H](C)CC(=O)O)C(=O)N[C@@H](CC(=O)c2ccccc2N)C(=O)O[C@@H]1C [Compound 11] | 0.5 µg/mL (≈ 0.306 µM) | 20 mm | 0.5 µg/mL (≈ 0.306 µM) | 0.93 mg/kg × 2 | ≥ 500 mg/kg | 25 mm | 17 mm | 0.5 µg/mL (≈ 0.306 µM) | 0.5 µg/mL (≈ 0.306 µM) | 1 µg/mL (≈ 0.612 µM) | 1 µg/mL (≈ 0.612 µM) | 0.25 µg/mL (≈ 0.153 µM) | 138 mg/kg × 2 | 0.068 mg/kg × 2 | 21 mm | 0.5 µg/mL (≈ 0.306 µM) | 1 µg/mL (≈ 0.612 µM)
CCCCCCCCCCCCC(=O)N[C@@H](Cc1c[nH]c2ccccc12)C(=O)N[C@@H](CC(N)=O)C(=O)N[C@@H](CC(=O)O)C(=O)N[C@@H]1C(=O)NCC(=O)N[C@@H](CCCN)C(=O)N[C@@H](CC(=O)O)C(=O)N[C@H](C)C(=O)N[C@@H](CC(=O)O)C(=O)NCC(=O)N[C@H](CO)C(=O)N[C@@H]([C@H](C)CC(=O)O)C(=O)N[C@@H](CC(=O)c2ccccc2N)C(=O)O[C@@H]1C [Compound 7] | 32 µg/mL (≈ 19.2 µM) | 19 mm | 0.25 µg/mL (≈ 0.15 µM) | 0.54 mg/kg × 2 | 112 mg/kg | 29 mm | 17 mm | 0.5 µg/mL (≈ 0.301 µM) | 0.125 µg/mL (≈ 0.0752 µM) | 0.03 µg/mL (≈ 0.018 µM) | 0.5 µg/mL (≈ 0.301 µM) | 0.25 µg/mL (≈ 0.15 µM) | 45 mg/kg × 2 | 0.046 mg/kg × 2 | 21 mm | 0.125 µg/mL (≈ 0.0752 µM) | 0.5 µg/mL (≈ 0.301 µM)
